Here are results for four compounds from patent publication US20250161404A1, “METHODS AND COMPOSITIONS FOR THE CONTROL OF INFLAMMATION IN SKIN DISEASE” (VANDERBILT UNIVERSITY, priority 2023, published 2025).

Values after ≈ are worked out from the molar mass of the structure shown. Where a SMILES comes first, the peptide text is derived from it. Bridges are numbered along the chain shown (N, C = ends). Bounds are passed on as bounds.

The nature of series [1]: Cell viability of cultured human keratinocytes. It is filed as cell-based. The conditions noted are these: in all conditions, 48 hours after TNF-α/IL-17 challenge.
Series [2] is described as follows: Solubility of the peptide. Conditions: cSN50: depending on the method of synthesis and purification; read-out: soluble at levels of. It is filed as physicochemical. The protocol:
cSN50.1 is a cyclized peptide having the sequence of cSN50 with the exception that the tyrosine at position 18 of cSN50, adjacent to the first cysteine, has been removed. Methods of making and using cSN50 are described, for example, in U.S. Pat. Nos. 7,553,929 and 6,495,518. The amino acid sequence of cSN50.1 is […] (SEQ ID NO: 2). The tyrosine at position 18 was removed from the sequence of cSN50 to increase solubility. cSN50 is soluble at levels of ranging from 2.0 mg/mL to 40 mg/mL depending on the method of synthesis and purification whereas cSN50.1 is soluble at levels of at least 100 mg/ml. Any mimetics, derivatives, or homologs of cSN50.1 may be used in the compositions, methods, and kits disclosed herein. cSN50.1 is also encompassed by SEQ ID NO: 3, SEQ ID NO: 4 and SEQ ID NO: 5. Additional examples of NTMs include fragment-designed and synthesized peptides in which cargo is incorporated as two, rather than one, modules or cargos derived from intracellular proteins other than NFκB 1. Such additional examples include the sequences of SEQ ID NO: 6, SEQ ID NO: 7, SEQ ID NO: 8, and SEQ ID NO: 9.

For series [3] the following is noted: long-term NTCI treatment; cited from earlier work.
Another series deals with Imp beta (Homo sapiens, UniProt Q14974). As to the kind of experiment: Cell culture and preclinical studies (Table 3 comment).
Imp beta, sequence (Q14974 whole entry): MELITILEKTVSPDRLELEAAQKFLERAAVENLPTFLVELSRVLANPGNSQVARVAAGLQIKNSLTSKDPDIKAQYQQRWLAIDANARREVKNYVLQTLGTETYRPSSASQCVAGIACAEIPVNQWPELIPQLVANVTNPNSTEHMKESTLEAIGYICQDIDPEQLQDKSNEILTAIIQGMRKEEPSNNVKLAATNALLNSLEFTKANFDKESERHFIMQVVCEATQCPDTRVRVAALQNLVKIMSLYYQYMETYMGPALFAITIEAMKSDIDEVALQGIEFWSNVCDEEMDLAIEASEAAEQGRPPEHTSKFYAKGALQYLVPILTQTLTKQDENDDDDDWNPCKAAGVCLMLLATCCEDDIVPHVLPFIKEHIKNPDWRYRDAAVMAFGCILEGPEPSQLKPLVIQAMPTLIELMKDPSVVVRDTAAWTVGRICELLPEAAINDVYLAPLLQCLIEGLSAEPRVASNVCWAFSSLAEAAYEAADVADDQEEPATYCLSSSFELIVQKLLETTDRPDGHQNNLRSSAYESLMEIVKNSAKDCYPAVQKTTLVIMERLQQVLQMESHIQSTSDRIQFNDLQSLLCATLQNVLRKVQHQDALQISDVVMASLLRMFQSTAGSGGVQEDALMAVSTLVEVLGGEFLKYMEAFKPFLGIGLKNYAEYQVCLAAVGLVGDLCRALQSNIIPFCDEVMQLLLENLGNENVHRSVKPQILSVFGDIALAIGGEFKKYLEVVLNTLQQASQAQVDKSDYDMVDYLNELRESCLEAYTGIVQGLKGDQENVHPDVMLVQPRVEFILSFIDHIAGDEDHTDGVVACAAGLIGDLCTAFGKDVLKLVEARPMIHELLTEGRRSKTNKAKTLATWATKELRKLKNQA
The next series addresses Importin beta (Homo sapiens, UniProt Q14974). As to the kind of experiment: Binding studies (Table 3 comment).

Importin beta, sequence (Q14974 whole entry): as above

In the case of `CSCC[C@@H]1NC(=O)[C@H](CC(C)C)NC(=O)[C@H](CCCCN)NC(=O)[C@H](CCC(N)=O)NC(=O)[C@H](CCCNC(=N)N)NC(=O)[C@H](CCCCN)NC(=O)[C@H](CCCNC(=N)N)NC(=O)[C@H](CCC(N)=O)NC(=O)[C@H](C(C)C)NC(=O)[C@@H](NC(=O)[C@@H]2CCCN2C(=O)[C@H](C)NC(=O)[C@H](CC(C)C)NC(=O)[C@H](CC(C)C)NC(=O)[C@H](C)NC(=O)[C@H](CC(C)C)NC(=O)[C@H](CC(C)C)NC(=O)[C@@H](NC(=O)[C@H](C)NC(=O)[C@@H]2CCCN2C(=O)[C@H](CC(C)C)NC(=O)[C@H](CC(C)C)NC(=O)[C@H](C)NC(=O)[C@@H](NC(=O)[C@H](C)NC(=O)[C@H](C)N)C(C)C)C(C)C)CSSC[C@@H](C(=O)O)NC(=O)[C@@H]2CCCN2C1=O` [cSN50.1] (H-AAVALLPAVLLALLAPCVQRKRQKLMPC-OH; disulfide 17-28; N-terminus and C-terminus assumed), the viability at 48 h in series [1] is over 80%. In series [2], the solubility is at least 100 mg/mL. In series [3], the apparent toxicity result is reported as “lack of apparent toxicity”. As to `CSCC[C@@H]1NC(=O)[C@H](CC(C)C)NC(=O)[C@H](CCCCN)NC(=O)[C@H](CCC(N)=O)NC(=O)[C@H](CCCNC(=N)N)NC(=O)[C@H](CCCCN)NC(=O)[C@H](CCCNC(=N)N)NC(=O)[C@H](CCC(N)=O)NC(=O)[C@H](C(C)C)NC(=O)[C@H](Cc2ccc(O)cc2)NC(=O)[C@@H](NC(=O)[C@@H]2CCCN2C(=O)[C@H](C)NC(=O)[C@H](CC(C)C)NC(=O)[C@H](CC(C)C)NC(=O)[C@H](C)NC(=O)[C@H](CC(C)C)NC(=O)[C@H](CC(C)C)NC(=O)[C@@H](NC(=O)[C@H](C)NC(=O)[C@@H]2CCCN2C(=O)[C@H](CC(C)C)NC(=O)[C@H](CC(C)C)NC(=O)[C@H](C)NC(=O)[C@@H](NC(=O)[C@H](C)NC(=O)[C@H](C)N)C(C)C)C(C)C)CSSC[C@@H](C(=O)O)NC(=O)[C@@H]2CCCN2C1=O` [cSN50] (H-AAVALLPAVLLALLAPCYVQRKRQKLMPC-OH; disulfide 17-29; N-terminus and C-terminus assumed), the solubility in series [2] lay in the range of 2 to 40 mg/mL (≈ 0.635 to 12.7 mM).

In the case of AAVALLPAVLLALLAPCVQRDEQKLMPC [cSN50.1β], the “Comments: importin selectivity” value in the series with Imp beta is given as “Imp beta-selective”. As to “AAVALLPAVLLALLAPVQRDEQKLMP (Description of sequence: Peptide, name of peptide: SM12)”, in the series with Importin beta, the “Comments: importin selectivity” value was “Importin beta-”.

Broadly, the viability is the share of living cells, or the viability signal relative to a control. A low value points to a greater loss of cells.
